pIC50: −log10 of the molar value.
Legend:
[1] = system: in vitro differentiated macrophages; experiment: Cell viability of in vitro differentiated macrophages (PI staining, flow cytometry); type: cell-based, human
Experimental: (§1) Apoptosis was detected by staining with AnnexinV and PI.
We next studied the effect of ecteinascidin 743 on already differentiated macrophages obtained from monocytes cultured in vitro for 5 days with M-CSF. […] Monocytes were differentiated to macrophages by culture with M-CSF (20 ng/ml). At day 3, ecteinascidin 743 was added to cultures and incubated for 48 h. […] Similar results were obtained in other 4 experiments. In a series of 4 different experiments, IC50 for in vitro differentiated was 10 nM.
We then tested the susceptibility to ecteinascidin 743 of macrophages classically activated by LPS and IFN gamma (or M1 macrophages) and alternatively activated by IL-4 (or M2 macrophages). In vitro differentiated macrophages were stimulated with LPS (100 ng/ml)+IFNgamma (500 UI:ml), Il-4 (20 ng/ml), in the presence or absence of ecteinascidin 743 for 48 h.

[2] = system: Tumour-Associated Macrophages (TAM); experiment: Cell viability of Tumour-Associated Macrophages from ovarian cancer ascites; type: cell-based; settings: Homo sapiens, Macrophage; 10 nM, 48 h, three patients
Description: Tumour-associated macrophages (TAM) and tumour cells were isolated from the ascitic fluid of patients with diagnosed ovarian adenocarcinoma, admitted to the Clinic of Obstetrics and Gynecology of the University of Milan-Bicocca, S Gerardo Hospital. Cells contained in the ascitic fluid were centrifuged and isolated by differential density gradients of Ficoll and Percoll, and plastic adherence as previously described (see Allavena, P., Peccatori, F., Maggioni, D., Erroi, A., Sironi, M., Colombo, N., Lissoni, A., Galazka, A., Meiers, W., Mangioni, C., et al. Intraperitoneal recombinant gamma-interferon in patients with recurrent ascitic ovarian carcinoma: modulation of cytotoxicity and cytokine production in tumour-associated effectors and of major histocompatibility antigen expression on tumour cells. Cancer Res, 50: 7318-7323, 1990). Purity of TAM and tumour cell preparations was usually>65±10% as defined by morphology and phenotype analysis. Cells were treated with ecteinascidin 743 at the indicated concentrations and cultured for 1-5 days, as specified in figure legends. At the end of the incubation period cells were collected, washed and used for DNA analysis or functional assays.
as §1
We also tested Tumour-Associated Macrophages (TAM) isolated from the ascites of non-treated ovarian adenocarcinoma patients. […]

[3] = system: macrophage differentiation; experiment: In vitro macrophage differentiation of monocytes with M-CSF (phenotype analysis); type: cell-based, human; settings: 1 nM, 5 days with M-CSF 20 ng/ml
Experimental: (§2) Expression of cell membrane markers was performed by immunofluoresce and analyzed by Flow Cytometry. Cells were incubated with anti-CD14, anti-CD16, anti-CD68, anti-CD206 (mannose receptor) and then with FITC-goat anti-mouse Ig as described. At least 10,000 cells were analyzed.
In order to study the effect of ecteinascidin 743 on macrophage differentiation, non cytotoxic doses of the drug were used. Monocytes were cultured with M-CSF (20 ng/ml) and with sub-cytotoxic concentrations of ecteinascidin 743 for 5 days. Phenotype analysis was performed by indirect immunofluorescence and analyzed in Flow Cytometry by gating on large cells. Usually, an average of 65±15% (mean±SD of>10 experiments) of input monocytes differentiate into large cells expressing typical macrophage markers, including CD16, CD68 and CD206 (mannose receptor). After 5 days of culture monocyte viability, evaluated by propidium iodide staining in flow cytometry, was 92% and 70% of untreated cells at 0.5 and 1 nM ecteinascidin 743, respectively.

[4] = system: macrophage differentiation; experiment: In vivo treatment of tumour patients, in vitro differentiation of their monocytes to macrophages; design: species or system human; % inhibition of macrophage differentiation referred to cells before infusion: concentration or dose not given beside the values; settings: for Absolute numbers of marker positive macrophages/10,000 cells, Exposure to ecteinascidin 743: end of 3-h infusion, 5 days M-CSF
Experimental: as §2
Patients with sarcoma or ovarian cancer undergoing Phase II trial with ecteinascidin 743, were admitted to the European Oncology institute, Milano, Italy. Patients received ecteinascidin 743 ([…]) in a 3-h infusion. Blood samples (40 ml) were collected immediately before the treatment and at the end of the infusion (+3 h). Blood samples were immediately processed and Percoll purified monocytes (usually 10^6 cells) were cultured with M-CSF (20 ng/ml) for 5 days. Differentiated cells were harvested, counted and analyzed for phenotype expression, as described above. Results are presented as absolute numbers of marker-positive cells/10,000 cells.
To validate the above in vitro findings we tested whether the in vivo administration of ecteinascidin 743 in tumour patients could have measurable effects on monocyte viability and capacity to macrophage differentiation in vitro. A phase II trial with ecteinascidin 743 is currently underway in advanced ovarian adenocarcinoma patients who had failed two different cycles of conventional cis-platin and taxol-based chemotherapy. Tumour patients selected for this study were treated with 1300 ug/ml/m2 of ecteinascidin 743. Blood samples from patients were drawn just before drug administration and at the end of a 3-hour infusion. Purified monocytes were immediately isolated and cultured with M-CSF (20 ng/ml) for 5 days to induce macrophage differentiation and then analalyzed for phenotype expression. […] The data shown are the absolute numbers of marker positive cells for a total of 10,000 input cells.

[5] = system: TNF; experiment: TNF production by LPS-stimulated monocytes (ELISA); type: cell-based, human; settings: LPS 100 ng/ml, 16 h incubation
Experimental: Monocytes, macrophages and TAM were stimulated with 100 ng/ml LPS to induce maximal cytokine production. Determination of cytokines CCL2, TNF and IL-6 was measured by specific ELISA following the manufacturer's instructions.
To verify whether the inhibitory effect of ecteinascidin 743 on cytokine production was at the transcriptional level, we analyzed mRNA of CCL2 and TNF from LPS-stimulated macrophages by real time-PCR of CCL2 and TNF transcripts in LPS-stimulated monocytes exposed to ecteinascidin 743.
CCL2 and TNF production by LPS-stimulated monocytes treated with the indicated doses of the anti-tumor agents was also tested. […] […] None of these compounds interfered with the production of TNF.

In the case of `COc1cc2c(cc1O)CCN[C@]21CS[C@@H]2c3c(OC(C)=O)c(C)c4c(c3[C@H](COC1=O)N1[C@@H]2[C@H]2c3c(cc(C)c(OC)c3O)C[C@@H]([C@@H]1O)N2C)OCO4` [ecteinascidin 743], the pIC50 ([1]; Homo sapiens, Macrophage, drug added in the last 48 h, series of 4 experiments) was 8.00, the “susceptibility of LPS-stimulated and IL-4-stimulated macrophages” value ([1]; LPS 100 ng/ml + IFNgamma 500 UI/ml or IL-4 20 ng/ml, 48 h) was “susceptible to drug treatment similarly as non-stimulated macrophages” and the mortality at 0.01 µM [2] was 40 to 70%. The “de novo expression of CD68, CD16 and CD206” value [3] was “reduced”, the “subjects whose monocytes showed decreased macrophage differentiation after treatment” value ([4]; of 12 evaluable patients, blood at end of 3-hour infusion) was 6 and the “% inhibition of macrophage differentiation referred to cells before infusion” value ([4]; patient UPN 1, CD16) was 60%. For the same compound, the “Absolute numbers of marker positive macrophages/10,000 cells, Exposure to ecteinascidin 743” value (from here on “Absolute numbers”) ([4]; patient UPN 1, CD16) was 1248 /10,000 cells, the “% inhibition of macrophage differentiation referred to cells before infusion” value ([4]; patient UPN 1, CD68) was 45% and the “Absolute numbers” value ([4]; patient UPN 1, CD68) was 1473 /10,000 cells. For the same compound, the “% inhibition of macrophage differentiation referred to cells before infusion” value ([4]; patient UPN 1, CD206) was 88%, the “Absolute numbers” value ([4]; patient UPN 1, CD206) was 550 /10,000 cells and the “% inhibition of macrophage differentiation referred to cells before infusion” value ([4]; patient UPN 2, CD16) was 60%. The “Absolute numbers” value ([4]; patient UPN 2, CD16) was 1105 /10,000 cells, the “% inhibition of macrophage differentiation referred to cells before infusion” value ([4]; patient UPN 2, CD68) was 70% and the “Absolute numbers” value ([4]; patient UPN 2, CD68) was 1060 /10,000 cells. The “% inhibition of macrophage differentiation referred to cells before infusion” value ([4]; patient UPN 2, CD206) was 79%, the “Absolute numbers” value ([4]; patient UPN 2, CD206) was 595 /10,000 cells and the “% inhibition of macrophage differentiation referred to cells before infusion” value ([4]; patient UPN 3, CD68) was 80%. The “Absolute numbers” value ([4]; patient UPN 3, CD68) was 632 /10,000 cells, the “% inhibition of macrophage differentiation referred to cells before infusion” value ([4]; patient UPN 3, CD206) was 87% and the “Absolute numbers” value ([4]; patient UPN 3, CD206) was 474 /10,000 cells. The “% inhibition of macrophage differentiation referred to cells before infusion” value ([4]; patient UPN 4, CD16) was 41%, the “Absolute numbers” value ([4]; patient UPN 4, CD16) was 3050 /10,000 cells and the “% inhibition of macrophage differentiation referred to cells before infusion” value ([4]; patient UPN 4, CD68) was 55%. For the same compound, the “Absolute numbers” value ([4]; patient UPN 4, CD68) was 2460 /10,000 cells, the “% inhibition of macrophage differentiation referred to cells before infusion” value ([4]; patient UPN 5, CD16) was 63% and the “Absolute numbers” value ([4]; patient UPN 5, CD16) was 594 /10,000 cells. The “% inhibition of macrophage differentiation referred to cells before infusion” value ([4]; patient UPN 5, CD68) was 50%, the “Absolute numbers” value ([4]; patient UPN 5, CD68) was 815 /10,000 cells and the “% inhibition of macrophage differentiation referred to cells before infusion” value ([4]; patient UPN 6, CD16) was 83%. The “Absolute numbers” value ([4]; patient UPN 6, CD16) was 480 /10,000 cells, the “% inhibition of macrophage differentiation referred to cells before infusion” value ([4]; patient UPN 6, CD68) was 79% and the “Absolute numbers” value ([4]; patient UPN 6, CD68) was 505 /10,000 cells. The “production of TNF by monocytes” value [5] was “never inhibited”.

— patent US20080076772A1, “Anti-Inflammatory Agents” (Pharma Mar S.A. Sociedad Unipersonal, priority 2004, published 2008)
